Test results taken from patent publication US20250296936A1, “SARS-COV2 MAIN PROTEASE INHIBITORS” (Gilead Sciences, Inc., priority 2024, published 2025).

system: SARS-CoV-2-NLuc in A549-hACE2 cells; test: microbe, parasite or virus in culture; format: cell-based, SARS Coronavirus 2; conditions: Severe acute respiratory syndrome coronavirus, 48 h, read-out: MPro EC50 (nM)

In order of rising EC50:
1. N#CC1(Cn2c(=O)n(-c3cncc4ccc(F)cc34)c(=O)c3oc(-c4ccccc4Cl)cc32)CC1 [Example 52]  11.8 nM
2. Cc1cncc(-n2c(=O)c3oc(-c4ccccc4Cl)cc3n(CC3(C#N)CC3)c2=O)c1 [Example 53]  12.8 nM
3. N#CC1(Cn2c(=O)n(-c3cncc4ccccc34)c(=O)c3oc(-c4ccc(F)cc4Cl)cc32)CC1 [Example 54]  18 nM
4. COc1cc(-c2cc3c(o2)c(=O)n(-c2cncc(C)c2)c(=O)n3CCC#N)c(Cl)cc1F [Example 58]  19.9 nM
5. COc1cc(-c2cc3[nH]c(=O)n(-c4cncc(C)c4)c(=O)c3o2)c(Cl)cc1F [Example 56]  195 nM

same assay, conditions: Severe acute respiratory syndrome coronavirus, 48 h; read-out: MPro EC50

In order of falling EC50:
1. COc1cc(-c2cc3[nH]c(=O)n(-c4cncc5cccnc45)c(=O)c3o2)c(Cl)cc1F [Example 55, 6-(2-chloro-4-fluoro-5-methoxyphenyl)-3-(1,6-naphthyridin-8-yl)furo[3,2-d]pyrimidine-2,4(1H,3H)-dione]  250 nM
2. COc1cc(-c2cc3c(o2)c(=O)n(-c2cncc4cccnc24)c(=O)n3CCC#N)c(Cl)cc1F [Example 57, 3-(6-(2-chloro-4-fluoro-5-methoxyphenyl)-3-(1,6-naphthyridin-8-yl)-2,4-dioxo-3,4-dihydrofuro[3,2-d]pyrimidin-1(2H)-yl)propanenitrile]  19.7 nM
